The values that follow come from patent US11691980B2, “Liphagal analog and multi-targeted kinase inhibitor containing liphagal or analog thereof” (TOHOKU UNIVERSITY, priority 2017, dated 2023).

Holding throughout (format): biochemical
The target in test [1] is PIK3CA/PIK3R1 (Homo sapiens, UniProt P42336). The test can be described thus: ADP-Glo Kinase Assay. To be noted: FIG. 4. As to the method:
CD-3 produced in the foregoing was used as a test substance, and was measured for its IC50 value for PIK3CA/PIK3R1 by ADP-Glo™ Kinase Assay. A specific procedure is as described below.
The test substance was dissolved in dimethyl sulfoxide (DMSO), and further diluted with DMSO to prepare a solution having a 100-fold concentration with respect to a Lest concentration. The solution was further diluted 25-fold with an assay buffer to prepare a test substance solution. A positive control substance was similarly treated to prepare a positive control substance solution.
1) 5 μL of a test substance solution having a 4-fold concentration, 5 μL of a substrate solution having a 4-fold concentration, 5 μL of an ATP solution having a 4-fold concentration, and 5 μL of a kinase/metal solution having a 4-fold concentration, which had been prepared with an assay buffer (50 mM MOPS, 1 mM DTT, pH 7.2), were mixed in wells of a 384 well black plate made of polystyrene, and the mixture was subjected to a reaction at room temperature for 1 hour. […]
4) The kinase reaction was assessed in terms of relative light unit (RLU). […]
An IC50 value was determined by approximating a plot of test substance concentration and inhibition rate to a 4-parameter logistic curve by a nonlinear least-squares method.

The target in test [2] is PIK3α (PIK3CA/PIK3R1) (Homo sapiens, UniProt P42336). The test can be described thus: IC50 by mobility shift assay. To be noted: Table 2, mobility shift assay; read-out: IC50 (μM), Kinase PIK3CA/PIK3RI. As to the method: The compounds obtained in Production Examples described above were each measured for its IC50 value for PIK3α (PIK3CA/PIK3R1) by mobility shift assay. The mobility shift assay is a method involving separating and quantifying a substrate and a phosphorylated substrate on the basis of mobility in a capillary. Each compound was mixed at various concentrations with an assay buffer (20 mM HEPES, 2 mM DTT, 25 μM sodium cholate, 75 mM NaCl, 20 μM cantharidine) together with 21 nM PI3K, 1,000 nM phosphatidyl inositol, 50 μM ATP, and 5 mM MgCl, and the mixture was subjected to a reaction at room temperature for 5 hours, followed by the mobility shift assay. The test was repeated twice. The enzymatic reaction was assessed on the basis of a product ratio (P/(P+S)) calculated from the height of a substrate peptide peak (S) and the height of a phosphorylated peptide peak (P). An inhibition rate was calculated from a signal obtained when each compound was added, with the average signal of a control containing all reaction components being defined as 0% inhibition and the average signal of a background (no enzyme added) being defined as 100% inhibition.
Sequence of PIK3α (PIK3CA/PIK3R1) (P42336 whole entry): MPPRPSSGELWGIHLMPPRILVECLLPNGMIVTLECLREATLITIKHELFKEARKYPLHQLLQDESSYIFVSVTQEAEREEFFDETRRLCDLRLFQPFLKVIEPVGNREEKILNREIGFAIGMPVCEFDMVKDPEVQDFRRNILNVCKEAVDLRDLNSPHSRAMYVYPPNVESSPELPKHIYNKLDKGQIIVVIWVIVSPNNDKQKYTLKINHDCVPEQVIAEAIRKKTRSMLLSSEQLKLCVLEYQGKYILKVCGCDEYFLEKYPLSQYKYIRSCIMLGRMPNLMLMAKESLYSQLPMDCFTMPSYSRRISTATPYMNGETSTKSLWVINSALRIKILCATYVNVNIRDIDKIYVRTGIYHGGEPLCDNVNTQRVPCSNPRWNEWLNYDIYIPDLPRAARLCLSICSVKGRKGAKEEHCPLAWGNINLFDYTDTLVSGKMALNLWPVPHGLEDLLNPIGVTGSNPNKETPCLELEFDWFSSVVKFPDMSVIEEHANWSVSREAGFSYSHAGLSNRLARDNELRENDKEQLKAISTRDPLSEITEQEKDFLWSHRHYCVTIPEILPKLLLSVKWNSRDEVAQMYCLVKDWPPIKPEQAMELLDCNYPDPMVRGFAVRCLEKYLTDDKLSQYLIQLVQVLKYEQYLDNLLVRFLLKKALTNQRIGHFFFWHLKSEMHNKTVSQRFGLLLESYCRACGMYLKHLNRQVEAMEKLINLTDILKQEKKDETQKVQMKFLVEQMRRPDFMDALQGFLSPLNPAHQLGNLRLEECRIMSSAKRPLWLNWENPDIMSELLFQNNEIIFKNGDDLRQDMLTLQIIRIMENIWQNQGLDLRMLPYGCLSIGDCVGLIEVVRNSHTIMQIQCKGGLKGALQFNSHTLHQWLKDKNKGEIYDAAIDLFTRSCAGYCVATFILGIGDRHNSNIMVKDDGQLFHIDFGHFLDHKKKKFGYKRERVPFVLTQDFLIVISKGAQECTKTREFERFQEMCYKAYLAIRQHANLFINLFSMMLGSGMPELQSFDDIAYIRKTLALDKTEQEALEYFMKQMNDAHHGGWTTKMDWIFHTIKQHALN
Sequence of PIK3α (PIK3CA/PIK3R1) (P27986 whole entry partner): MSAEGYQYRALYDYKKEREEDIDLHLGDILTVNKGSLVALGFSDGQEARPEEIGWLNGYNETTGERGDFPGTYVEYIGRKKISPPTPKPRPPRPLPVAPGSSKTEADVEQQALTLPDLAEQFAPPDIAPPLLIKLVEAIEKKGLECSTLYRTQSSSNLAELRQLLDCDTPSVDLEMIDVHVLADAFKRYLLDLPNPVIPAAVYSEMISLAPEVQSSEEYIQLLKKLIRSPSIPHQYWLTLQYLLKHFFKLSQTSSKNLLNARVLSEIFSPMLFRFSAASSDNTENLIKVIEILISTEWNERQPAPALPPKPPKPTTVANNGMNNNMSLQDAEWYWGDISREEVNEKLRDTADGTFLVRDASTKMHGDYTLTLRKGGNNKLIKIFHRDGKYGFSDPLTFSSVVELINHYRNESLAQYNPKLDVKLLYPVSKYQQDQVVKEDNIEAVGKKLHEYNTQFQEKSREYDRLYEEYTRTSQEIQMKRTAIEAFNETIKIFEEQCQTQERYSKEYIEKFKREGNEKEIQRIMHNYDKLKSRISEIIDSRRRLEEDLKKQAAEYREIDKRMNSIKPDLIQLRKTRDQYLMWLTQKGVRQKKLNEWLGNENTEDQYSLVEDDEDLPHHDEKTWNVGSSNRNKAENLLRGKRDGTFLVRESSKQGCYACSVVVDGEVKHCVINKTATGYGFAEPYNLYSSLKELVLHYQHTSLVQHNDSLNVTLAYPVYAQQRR
(§1) The compounds produced in Production Examples described above were each assessed for its inhibitory activity against CDK7, PIM2, and PI3K by mobility shift assay. In addition, a combination showing the highest inhibitory activity against each kinase is indicated by italics.

The target of test [3] is CDK4/CycD3 (Homo sapiens, UniProt P11802). The test can be described thus: IC50 by mobility shift assay. To be noted: Table 3, CDK4, mobility shift assay; read-out: IC50 (μM), Kinase CDK4/CycD3. An excerpt: Next, the compounds produced in Production Examples described above were each assessed for its inhibitory activity against CDK4 by mobility shift assay. In addition, a combination showing the highest inhibitory activity is indicated by italics.
Sequence of CDK4/CycD3 (P11802 whole entry): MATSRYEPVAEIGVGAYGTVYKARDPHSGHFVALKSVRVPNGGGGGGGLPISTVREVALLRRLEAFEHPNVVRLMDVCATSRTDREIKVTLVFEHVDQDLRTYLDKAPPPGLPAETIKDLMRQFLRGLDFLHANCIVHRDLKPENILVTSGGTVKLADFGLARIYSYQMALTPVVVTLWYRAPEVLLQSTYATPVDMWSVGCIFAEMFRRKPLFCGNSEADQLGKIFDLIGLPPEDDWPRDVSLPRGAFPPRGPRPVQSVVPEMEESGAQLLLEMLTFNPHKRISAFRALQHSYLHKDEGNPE
Sequence of CDK4/CycD3 (P30281 whole entry partner): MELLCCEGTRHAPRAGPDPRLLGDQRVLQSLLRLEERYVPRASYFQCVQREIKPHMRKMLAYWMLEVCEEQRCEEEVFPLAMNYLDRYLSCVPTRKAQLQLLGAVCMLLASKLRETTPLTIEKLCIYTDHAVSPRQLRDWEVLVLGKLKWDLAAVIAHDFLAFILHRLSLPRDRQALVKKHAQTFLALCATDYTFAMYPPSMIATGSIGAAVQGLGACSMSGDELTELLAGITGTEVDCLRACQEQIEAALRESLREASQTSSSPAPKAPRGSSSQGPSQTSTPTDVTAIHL

Test [4] addresses CDK7/CycHMAT1 (Homo sapiens, UniProt P50613). The test can be described thus: IC50 by mobility shift assay. Conditions: Table 2, mobility shift assay; read-out: IC50 (μM), Kinase CDK7/CycH/MAT1.
Excerpt: as §1

Test [5] addresses PIM2 (Homo sapiens, UniProt Q9P1W9). The test can be described thus: IC50 by mobility shift assay. Conditions: for IC50: Table 2, mobility shift assay, read-out: IC50 (μM), Kinase PIM2; for inhibitory activity against PIM2: in words, Table 2.
Excerpt: as §1

For test [6], the target named is CDK6 (Homo sapiens, UniProt Q00534). The test can be described thus: IC50 by mobility shift assay. To be noted: Table 4, inhibitory activity against CDK6, mobility shift assay; read-out: IC50 (μM), Kinase. An excerpt: Next, the compounds produced in Production Examples described above were each assessed for its inhibitory activity against CDK6 by mobility shift assay. In addition, a combination showing the highest inhibitory activity is indicated by italics.
Sequence of CDK6 (Q00534 whole entry): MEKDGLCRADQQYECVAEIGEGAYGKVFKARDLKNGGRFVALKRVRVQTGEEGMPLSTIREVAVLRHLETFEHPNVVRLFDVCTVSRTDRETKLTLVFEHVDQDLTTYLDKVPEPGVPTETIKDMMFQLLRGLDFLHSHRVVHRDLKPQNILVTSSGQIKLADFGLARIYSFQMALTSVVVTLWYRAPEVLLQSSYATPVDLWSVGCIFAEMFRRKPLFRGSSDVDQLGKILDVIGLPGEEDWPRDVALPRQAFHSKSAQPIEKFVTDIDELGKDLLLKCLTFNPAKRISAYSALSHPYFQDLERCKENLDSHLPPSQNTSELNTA

Sequence of CDK7/CycHMAT1 (P50613 whole entry): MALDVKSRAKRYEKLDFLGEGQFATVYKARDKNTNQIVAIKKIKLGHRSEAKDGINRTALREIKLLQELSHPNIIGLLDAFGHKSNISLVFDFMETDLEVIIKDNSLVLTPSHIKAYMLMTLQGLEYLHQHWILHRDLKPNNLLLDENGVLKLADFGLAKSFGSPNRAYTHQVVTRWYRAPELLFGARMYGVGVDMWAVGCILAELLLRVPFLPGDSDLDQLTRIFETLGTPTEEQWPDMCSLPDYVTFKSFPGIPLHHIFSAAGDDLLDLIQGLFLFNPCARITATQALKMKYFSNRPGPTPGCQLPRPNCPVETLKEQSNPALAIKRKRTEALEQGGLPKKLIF
Sequence of CDK7/CycHMAT1 (P51946 whole entry partner): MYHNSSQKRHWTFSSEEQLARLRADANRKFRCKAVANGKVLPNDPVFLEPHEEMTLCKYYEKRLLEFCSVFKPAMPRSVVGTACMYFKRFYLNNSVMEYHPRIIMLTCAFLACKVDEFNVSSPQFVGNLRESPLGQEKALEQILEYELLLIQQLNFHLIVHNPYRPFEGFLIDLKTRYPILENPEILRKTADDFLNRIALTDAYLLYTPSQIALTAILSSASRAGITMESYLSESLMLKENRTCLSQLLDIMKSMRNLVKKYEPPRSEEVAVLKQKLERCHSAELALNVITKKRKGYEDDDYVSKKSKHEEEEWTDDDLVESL
Sequence of CDK7/CycHMAT1 (P51948 whole entry partner): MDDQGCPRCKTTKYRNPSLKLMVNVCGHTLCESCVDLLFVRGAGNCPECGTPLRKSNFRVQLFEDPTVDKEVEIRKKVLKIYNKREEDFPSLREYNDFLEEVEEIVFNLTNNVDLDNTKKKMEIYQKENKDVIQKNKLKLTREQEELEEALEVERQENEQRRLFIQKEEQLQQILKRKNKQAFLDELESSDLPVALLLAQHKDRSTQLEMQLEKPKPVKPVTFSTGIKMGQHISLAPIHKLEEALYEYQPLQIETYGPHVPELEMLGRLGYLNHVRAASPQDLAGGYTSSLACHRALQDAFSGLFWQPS
Sequence of PIM2 (Q9P1W9 whole entry): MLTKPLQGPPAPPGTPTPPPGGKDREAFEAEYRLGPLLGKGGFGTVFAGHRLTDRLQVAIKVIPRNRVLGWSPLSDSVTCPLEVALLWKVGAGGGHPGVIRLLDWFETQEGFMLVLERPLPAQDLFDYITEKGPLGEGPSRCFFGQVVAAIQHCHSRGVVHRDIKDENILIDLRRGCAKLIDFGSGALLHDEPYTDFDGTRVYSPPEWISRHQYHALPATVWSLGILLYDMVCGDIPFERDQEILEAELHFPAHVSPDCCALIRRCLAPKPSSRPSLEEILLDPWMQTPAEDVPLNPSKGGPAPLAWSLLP
Sequence of PIK3CA/PIK3R1 (P42336 whole entry): as the sequence (P42336 whole entry) above
Sequence of PIK3CA/PIK3R1 (P27986 whole entry partner): as the sequence (P27986 whole entry partner) above

In test [1], `C[C@H]1CC[C@H]2C(C)(C)CCCC2(C)[C@]12C=C1C=C(O)C(=O)C(C=O)=C1O2` (stereo partly drawn) [CD-3, 8-epi-corallidictyal B] displayed an IC50 of 8.2 µM.
Regarding `C[C@H]1CC[C@H]2C(C)(C)CCC[C@]2(C)c2c1oc1c(C=O)c(O)c(O)cc21` [LG-2], the IC50 in test [2] came out at 1.72 µM; in test [3], 125 µM; in test [4], 9.08 µM; in test [5], 2.81 µM. In test [5], the “inhibitory activity against PIM2” value is reported as “potent inhibitory actions”.
`C[C@H]1CC[C@H]2C(C)(C)CCC[C@]2(C)c2c1oc1c(C=O)c3c(cc21)OCO3` [LG-4]: the values for the IC50 in test [2], in test [4] and in test [5] were 4.43 µM, 191 µM and 13.8 µM, respectively.
As for `C[C@H]1CC[C@H]2C(C)(C)CCC[C@]2(C)/C1=C/c1cc(O)c(O)c(C=O)c1O` [SD-2, 8-epi-siphonodictyal B], the IC50 came to 3.26 µM in test [2]; 22.4 µM in test [3]; 25.6 µM in test [6]; 4.24 µM in test [4]; 2.79 µM in test [5]. Further, the “inhibitory activity against PIM2” value in test [5] is reported as “potent inhibitory actions”.
`C[C@@H]1CC[C@H]2C(C)(C)CCC[C@]2(C)c2c1oc1c(C=O)c3c(cc21)OCO3` [LG-3]: the IC50 in test [2] is 4.26 µM; in test [3], 47.8 µM; in test [6] it was 64.1 µM; in test [4], 16.3 µM; in test [5], 18 µM.
On to `C[C@@H]1CC[C@H]2C(C)(C)CCC[C@]2(C)/C1=C/c1cc(O)c(O)c(C=O)c1O` [SD-1, siphonodictyal B], for which the IC50 in test [2] is 2.62 µM; in test [3], 32.9 µM; in test [6] it was 69.1 µM; in test [4] it was 13.7 µM; in test [5] it was 6.99 µM.
